Assay results taken from patent publication US20260226064A1, “POLYCYCLIC COMPOUND FOR TREATING NEUROLOGICAL DISEASES AND TUMORS” (Shanghai Institute of Organic Chemistry, Chinese Academy of …, priority 2023, published 2026).

System: acetylated microtubule in HEK293T cells
Test: Microtubule-Stabilizing Activity Assay (acetylated microtubule immunoblot, HEK293T, colchicine challenge)
Assay type: cell-based
Conditions: 1 h pre-incubation, then colchicine 1 μM 3 h, relative to CNDR-51657 at 500 nM = 1.00; for Microtubule-Stabilizing Activity 50 nM: compound 50 nM; for Microtubule-Stabilizing Activity 500 nM: compound 500 nM
Protocol: Compound solvent: 100% dimethyl sulfoxide (DMSO). Cell line: HEK293T (ATCC, CRL3216). Culture conditions: Cells were cultured in Dulbecco's Modified Eagle's Medium (DMEM) containing 10% fetal bovine serum and 1% penicillin/streptomycin. Cells were cultured at 37° C. in a Thermo-Fisher incubator with a humidified atmosphere of 5% carbon dioxide.
One day prior to the experiment, 100,000 cells were seeded at a density of 200,000 cells/ml in a 24-well plate.
On the day of the experiment, 20 μl of PBS phosphate buffer containing the test compound at experimental concentrations or an equivalent volume of DMSO was added to each well. After incubating at 37° C. for 1 hour, colchicine was added to each well at a final concentration of 1 μM, followed by an additional 3-hour incubation at 37° C. The plate was then placed on ice. The medium in each well was removed, and the cells were washed with ice-cold PBS. After aspirating the PBS, 0.1 mL of ice-cold RIPA lysis buffer (containing 0.5% sodium deoxycholate, 0.1% SDS, 1% NP-40, 5 mM EDTA, pH 8.0) was quickly added. Prior to use, a commercial protease inhibitor cocktail (1:500) and 1 μM deacetylase inhibitor Trichostatin A (Sangon Biotech Co., Ltd.) were added to the cell lysis buffer. The cell lysate were transferred to a 1.5 ml centrifuge tube, sonicated, and centrifuged at 13,000 rpm for 10 minutes. The supernatant was collected, and protein concentration was determined using the BCA assay.
Based on existing literature (Black, 1989; Kurt, 2011), acetylated microtubule was used as an indicator of microtubule polymerization to assess the microtubule-stabilizing efficacy of the compounds. HEK293T cell lysates were analyzed by SDS-PAGE (7.5% gel) and immunoblotted using acetylated microtubule antibody (1:20,000, Sigma-Aldrich, T7451) and α-microtubule antibody (1:2,000, Proteintech, 11224-1-AP). After incubation with fluorescent dye-conjugated IgG (1:40,000, Licor), the blots were visualized using an Odyssey-Dlx imaging system. Grayscale analysis was performed using ImageJ.
The compound activity was quantified with the microtubule-stabilizing activity of CNDR-51657 (C5) (Jane, 2016) at 500 nM as 1.00.

| SMILES | Microtubule-Stabilizing Activity 50 nM | Microtubule-Stabilizing Activity 500 nM |
| --- | --- | --- |
| CNC1CC2(C1)CC(Oc1cc(F)c(-c3c(Cl)nc4ncnn4c3N[C@H](C)C(C)C)c(F)c1)C2 (stereo partly drawn) [Example 9, (R)-5-Chloro-6-(2,6-difluoro-4-((6-(methylamino)spiro[3.3]heptan-2-yl)oxy)phenyl)-N-(3-methylbutan-2-yl)-[1,2,4]triazolo[1,5-a]pyrimidin-7-amine] | 0.53 | 1.74 |
| C[C@H](Nc1c(-c2c(F)cc(OC3CC4(CCC(N(C)C)CC4)C3)cc2F)c(Cl)nc2ncnn12)C(F)(F)F (stereo partly drawn) [Example 20, (S)-5-Chloro-6-(2,6-difluoro-4-((7-(dimethylamino)spiro[3.5]nonan-2-yl)oxy)phenyl)-N-(1,1,1-trifluoropropan-2-yl)-[1,2,4]triazolo[1,5-a]pyrimidin-7-amine] | 0.05 | 1.32 |
| CC(C)[C@@H](C)Nc1c(-c2c(F)cc(OC[C@@H]3[C@@H]4CNC[C@@H]43)cc2F)c(Cl)nc2ncnn12 [Example 29, 6-(4-(((1R,5S,6s)-3-Azabicyclo[3.1.0]hexan-6-yl)methoxy)-2,6-difluorophenyl)-5-chloro-N—((R)-3-methylbutan-2-yl)-[1,2,4]triazolo[1,5-a]pyrimidin-7-amine] | 0.32 | 1.69 |
| CC(C)[C@@H](C)Nc1c(-c2c(F)cc(O[C@H]3C[C@@H]4CN(C)C[C@@H]4C3)cc2F)c(Cl)nc2ncnn12 [Example 41, 5-Chloro-6-(2,6-difluoro-4-(((3aR,5s,6aS)-2-methyloctahydrocyclopenta[c]pyrrol-5-yl)oxy)phenyl)-N—((R)-3-methylbutan-2-yl)-[1,2,4]triazolo[1,5-a]pyrimidin-7-amine] | 0.11 | 1.93 |
| CN1C[C@@H]2[C@@H](COc3cc(F)c(-c4c(Cl)nc5ncnn5c4NCC(F)(F)F)c(F)c3)[C@@H]2C1 [Example 34, 5-Chloro-6-(2,6-difluoro-4-(((1R,5S,6r)-3-methyl-3-azabicyclo[3.1.0]hexan-6-yl)methoxy)phenyl)-N-(2,2,2-trifluoroethyl)-[1,2,4]triazolo[1,5-a]pyrimidin-7-amine] | 1.05 | 2.10 |
| CC(C)[C@@H](C)Nc1c(-c2c(F)cc(/C=C/[C@@H]3[C@H]4CN(C)C[C@@H]34)cc2F)c(Cl)nc2ncnn12 [Example 59] | 0.61 | 1.87 |
| C[C@@H](Nc1c(-c2c(F)cc(/C=C/[C@@H]3[C@H]4CNC[C@@H]34)cc2F)c(Cl)nc2ncnn12)C1CCC1.Cl [Example 52, 6-(4-((E)-2-((1R,5S,6s)-3-Azabicyclo[3.1.0]hexan-6-yl)vinyl)-2,6-difluorophenyl)-5-chloro-N—((R)-1-cyclobutylethyl)-[1,2,4]triazolo[1,5-a]pyrimidin-7-amine hydrochloride] | 1.41 | 1.69 |
| C[C@H](Nc1c(-c2c(F)cc(/C=C/[C@@H]3[C@H]4CNC[C@@H]34)cc2F)c(Cl)nc2ncnn12)C(F)(F)F.Cl [Example 53, 6-(4-((E)-2-((1R,5S,6s)-3-Azabicyclo[3.1.0]hexan-6-yl)vinyl)-2,6-difluorophenyl)-5-chloro-N—((S)-1,1,1-trifluoropropan-2-yl)-[1,2,4]triazolo[1,5-a]pyrimidin-7-amine hydrochloride] | 1.23 | 1.38 |
| CC(C)[C@@H](C)Nc1c(-c2c(F)cc(OC3CC4(CCC(N(C)C)CC4)C3)cc2F)c(Cl)nc2ncnn12 (stereo partly drawn) [Example 18, (R)-5-Chloro-6-(2,6-difluoro-4-((7-(dimethylamino)spiro[3.5]nonan-2-yl)oxy)phenyl)-N-(3-methylbutan-2-yl)-[1,2,4]triazolo[1,5-a]pyrimidin-7-amine] | 0.07 | 0.68 |
| CC(C)[C@@H](C)Nc1c(-c2c(F)cc(OC3CC4(C3)CC(N(C)C)C4)cc2F)c(Cl)nc2ncnn12 (stereo partly drawn) [Example 10, (R)-5-Chloro-6-(4-((6-(dimethylamino)spiro[3.3]heptan-2-yl)oxy)-2,6-difluorophenyl)-N-(3-methylbutan-2-yl)-[1,2,4]triazolo[1,5-a]pyrimidin-7-amine] | 0.26 | 0.28 |
| Cc1nc2ncnn2c(N[C@H](C)C2CCC2)c1-c1c(F)cc(OCC2[C@H]3CNC[C@@H]23)cc1F (stereo partly drawn) [Example 28, 6-(4-(((1R,5S,6r)-3-Azabicyclo[3.1.0]hexan-6-yl)methoxy)-2,6-difluorophenyl)-5-methyl-N—((R)-1-cyclobutylethyl)-[1,2,4]triazolo[1,5-a]pyrimidin-7-amine] | 1.65 | 1.43 |
| CC(C)[C@@H](C)Nc1c(-c2c(F)cc(OC[C@H]3[C@H]4CN(C)C[C@@H]34)cc2F)c(Cl)nc2ncnn12 [Example 30, 5-Chloro-6-(2,6-difluoro-4-(((1R,5S,6s)-3-methyl-3-azabicyclo[3.1.0]hex-6-yl)methoxy)phenyl)-N—((R)-3-methylbutan-2-yl)-[1,2,4]triazolo[1,5-a]pyrimidin-7-amine] | 0.09 | 0.97 |
| C[C@@H](Nc1c(-c2c(F)cc(OCC3[C@H]4CNC[C@@H]34)cc2F)c(Cl)nc2ncnn12)C1CCC1 (stereo partly drawn) [Example 26, 6-(4-(((1R,5S,6r)-3-Azabicyclo[3.1.0]hexan-6-yl)methoxy)-2,6-difluorophenyl)-5-chloro-N—((R)-1-cyclobutylethyl)-[1,2,4]triazolo[1,5-a]pyrimidin-7-amine] | 1.35 | 1.41 |
| CC(C)[C@@H](C)Nc1c(-c2c(F)cc(O[C@@H]3C[C@@H]4CN(C)C[C@@H]4C3)cc2F)c(Cl)nc2ncnn12 [Example 37, 5-Chloro-6-(2,6-difluoro-4-(((3aR,5r,6aS)-2-methyloctahydrocyclopenta[c]pyrrol-5-yl)oxy)phenyl)-N—((R)-3-methylbutan-2-yl)-[1,2,4]triazolo[1,5-a]pyrimidin-7-amine] | 0.16 | 0.17 |
| CC(C)[C@@H](C)Nc1c(-c2c(F)cc(OCC3[C@H]4CN(C)C[C@@H]34)cc2F)c(Cl)nc2ncnn12 (stereo partly drawn) [Example 22, 5-Chloro-6-(2,6-difluoro-4-(((1R,5S,6r)-3-methyl-3-azabicyclo[3.1.0]hex-6-yl)methoxy)phenyl)-N—((R)-3-methylbutan-2-yl)-[1,2,4]triazolo[1,5-a]pyrimidin-7-amine] | 1.88 | 1.61 |
| C[C@H](Nc1c(-c2c(F)cc(O[C@@H]3C[C@@H]4CN(C)C[C@@H]4C3)cc2F)c(Cl)nc2ncnn12)C(F)(F)F [Example 39, 5-Chloro-6-(2,6-difluoro-4-(((3aR,5r,6aS)-2-methyloctahydrocyclopenta[c]pyrrol-5-yl)oxy)phenyl)-N—((S)-1,1,1-trifluoropropan-2-yl)-[1,2,4]triazolo[1,5-a]pyrimidin-7-amine] | 0.29 | 0.45 |
| CC(C)[C@@H](C)Nc1c(-c2c(F)cc(C#C[C@@H]3[C@H]4CNC[C@@H]34)cc2F)c(Cl)nc2ncnn12.Cl [Example 44, 6-(4-(((1R,5S,6s)-3-Azabicyclo[3.1.0]hexan-6-yl)ethynyl)-2,6-difluorophenyl)-5-chloro-N—((R)-3-methylbutan-2-yl)-[1,2,4]triazolo[1,5-a]pyrimidin-7-amine hydrochloride] | – | 1.6 |
| C[C@H](Nc1c(-c2c(F)cc(O[C@H]3C[C@H]4CNC[C@H]4C3)cc2F)c(Cl)nc2ncnn12)C(F)(F)F [Example 38, 5-Chloro-6-(2,6-difluoro-4-(((3aR,5r,6aS)-octahydrocyclopenta[c]pyrrol-5-yl)oxy)phenyl)-N—((S)-1,1,1-trifluoropropan-2-yl)-[1,2,4]triazolo[1,5-a]pyrimidin-7-amine] | 0.31 | 0.95 |
